Columns and labels:
[1] = biological target: Acetylcholinesterase (AChE) (Electrophorus electricus, UniProt O42275); assay: biochemical
Procedure: (§1) The Ellman approach was employed to examine the impact of synthetic chemicals on the ability to inhibit AChE and BChE activity. AChI/BChI and DTNB were used to quantify the AChE/BChE activity. […] For different concentrations of the sample solution, 100 μL of buffer (1 M, Tris/HCl, pH 8.0) were used to dissolve 10 μL of the sample solution. […] The incubation was followed by the addition of DTNB (50 μL, 0.5 mM). Lastly, to start the reaction, 50 μL of bChI/aChI were added. […] Then, the activities of AChE/BChE were evaluated.

[2] = biological target: T1, Butyrylcholinesterase (BChE) (Equus caballus, UniProt P81908); assay: biochemical
T1 construct: Butyrylcholinesterase from equine serum (CAS No.: 9001–08-5); from tissue; host or cells: equine serum
T1 sequence (P81908 whole entry): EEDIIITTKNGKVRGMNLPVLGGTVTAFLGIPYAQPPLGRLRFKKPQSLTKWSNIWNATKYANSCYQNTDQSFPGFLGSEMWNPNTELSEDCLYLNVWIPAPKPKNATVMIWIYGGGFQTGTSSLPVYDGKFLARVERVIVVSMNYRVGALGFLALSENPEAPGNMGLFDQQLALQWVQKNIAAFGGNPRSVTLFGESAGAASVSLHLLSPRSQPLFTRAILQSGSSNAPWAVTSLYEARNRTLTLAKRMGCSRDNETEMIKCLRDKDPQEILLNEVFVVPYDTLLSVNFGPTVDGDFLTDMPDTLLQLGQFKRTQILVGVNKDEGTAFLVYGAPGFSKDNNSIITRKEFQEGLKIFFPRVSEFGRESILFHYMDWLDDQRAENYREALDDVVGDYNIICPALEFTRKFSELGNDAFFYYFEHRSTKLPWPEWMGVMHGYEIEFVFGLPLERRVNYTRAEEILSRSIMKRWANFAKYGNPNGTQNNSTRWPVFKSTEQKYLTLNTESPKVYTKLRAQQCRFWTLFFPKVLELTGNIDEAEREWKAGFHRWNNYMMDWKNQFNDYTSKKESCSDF
Procedure: as §1

α-Glucosidase = α-Glucosidase (Saccharomyces cerevisiae, UniProt P53341); assay: α-glucosidase inhibition with p-NPG substrate (Tao et al. method); format: biochemical
Chain of α-Glucosidase (P53341 whole entry): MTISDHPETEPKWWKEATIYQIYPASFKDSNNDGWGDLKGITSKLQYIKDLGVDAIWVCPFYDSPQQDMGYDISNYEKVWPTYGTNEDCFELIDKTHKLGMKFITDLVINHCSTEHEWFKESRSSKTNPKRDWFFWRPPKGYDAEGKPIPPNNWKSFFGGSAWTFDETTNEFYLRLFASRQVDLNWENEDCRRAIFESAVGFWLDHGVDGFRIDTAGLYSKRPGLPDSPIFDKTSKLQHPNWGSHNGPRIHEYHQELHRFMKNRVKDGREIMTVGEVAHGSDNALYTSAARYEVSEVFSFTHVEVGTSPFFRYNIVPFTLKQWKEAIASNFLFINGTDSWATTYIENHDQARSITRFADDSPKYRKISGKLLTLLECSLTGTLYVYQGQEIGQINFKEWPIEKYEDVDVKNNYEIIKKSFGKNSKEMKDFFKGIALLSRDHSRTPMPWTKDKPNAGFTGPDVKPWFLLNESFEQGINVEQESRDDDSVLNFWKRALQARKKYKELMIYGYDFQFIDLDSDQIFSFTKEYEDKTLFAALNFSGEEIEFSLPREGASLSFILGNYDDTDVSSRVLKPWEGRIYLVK
Procedure: Samples were made by dissolving 20 mg in 20 mL (EtOH:H2O). It was initially combined in 5–200 μL of sample with 700 μL of phosphate buffer (0.15 u/mL, pH 7.4) and 20 μL of enzyme solution [31, 32]. After a pre-incubation period of 10 min at 35 °C, 50 μL of p-NPG was added as the reaction began. Additionally, following the pre-incubation, 50 μL of p-NPG in phosphate buffer (5 mM, pH = 7.4) was added, and the incubation was repeated at 35 °C. A curve was fitted to the data to determine the IC50 and Ki values. […] (pH: 7.4).

Chain of Acetylcholinesterase (AChE) (O42275 24-633): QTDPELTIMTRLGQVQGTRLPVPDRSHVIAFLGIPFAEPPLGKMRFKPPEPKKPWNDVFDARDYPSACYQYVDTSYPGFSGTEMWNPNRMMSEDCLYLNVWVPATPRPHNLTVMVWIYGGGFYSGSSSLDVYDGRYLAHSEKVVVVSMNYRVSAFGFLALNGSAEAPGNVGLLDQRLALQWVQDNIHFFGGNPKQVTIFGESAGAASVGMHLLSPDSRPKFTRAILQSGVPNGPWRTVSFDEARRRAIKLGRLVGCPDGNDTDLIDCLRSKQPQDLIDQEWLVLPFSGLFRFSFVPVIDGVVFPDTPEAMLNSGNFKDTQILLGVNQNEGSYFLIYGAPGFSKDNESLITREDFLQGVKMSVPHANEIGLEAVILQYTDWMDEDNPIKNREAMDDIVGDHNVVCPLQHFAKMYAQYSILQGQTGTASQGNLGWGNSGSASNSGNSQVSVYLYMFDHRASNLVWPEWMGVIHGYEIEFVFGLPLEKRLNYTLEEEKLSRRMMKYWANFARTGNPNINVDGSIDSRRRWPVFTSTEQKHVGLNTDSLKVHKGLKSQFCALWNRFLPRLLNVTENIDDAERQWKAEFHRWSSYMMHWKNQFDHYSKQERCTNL

SMILES	IC50 [1] [nM]	Ki [1] [nM]	IC50 [2] [nM]	Ki [2] [nM]	IC50 (α-Glucosidase) [nM]	Ki (α-Glucosidase) [nM]
COc1ccc(C(=O)C2=C(c3ccc(OC)c(OC)c3OC)CCC2)c(OC)c1OC [Compound 4, (2,3,4-trimethoxyphenyl)(2-(2,3,4-trimethoxyphenyl)cyclopent-1-en-1-yl)methanone]	102	99.7 ± 11.4	414	403 ± 32.3	41.6	48.9 ± 7.33
COc1ccc(C(=O)C2CCC=C2c2ccc(OC)c(OC)c2OC)c(OC)c1OC (stereo not drawn) [Compound 5]	92.2	87.9 ± 7.27	187	176 ± 23.8	39.6	44.7 ± 6.61
COc1ccc(C(=O)CCCCC(=O)c2ccc(OC)c(OC)c2OC)c(OC)c1OC [Compound 6]	189	177 ± 22.6	225	212 ± 13.7	27.2	29.1 ± 4.25
COc1ccc(C(=O)CCCCC(=O)c2ccc(OC)c(OC)c2OC)c(O)c1OC [Compound 7]	644	632 ± 18.9	646	622 ± 35.1	43.2	46.5 ± 6.34
COc1ccc(C(=O)CCCCC(=O)c2ccc(OC)c(OC)c2O)c(O)c1OC [Compound 8]	174	171 ± 14.1	222	209 ± 14.7	36.4	38.5 ± 4.25
COc1c(Br)cc(C(=O)C(Br)CCC(Br)C(=O)c2cc(Br)c(OC)c(OC)c2O)c(O)c1OC (stereo not drawn) [Compound 9]	49.8	45.5 ± 7.35	450	428 ± 27.4	21.1	25.5 ± 4.46
COc1ccc(C2=C(/C(=N/NC(C)=O)c3ccc(OC)c(OC)c3OC)CCC2)c(OC)c1OC [Compound 10, (Z)-N'-((2,3,4-Trimethoxyphenyl)(2-(2,3,4-trimethoxyphenyl)cyclopent-1-en-1-yl)methylene)acetohydrazide]	205	196 ± 13.7	135	131 ± 14.5	28.4	31.2 ± 5.54
COc1ccc(CC2CCCC2c2ccc(OC)c(OC)c2OC)c(OC)c1OC (stereo not drawn) [Compound 11, 1,2,3-Trimethoxy-4-(2-(2,3,4-trimethoxybenzyl)cyclopentyl)benzene]	170	151 ± 13.3	155	145 ± 15.5	33.4	38.1 ± 5.48
COc1c(Br)c(Br)c(CC2CCCC2c2c(Br)c(Br)c(OC)c(OC)c2OC)c(OC)c1OC (stereo not drawn) [Compound 12, 1,2-Dibromo-3-(2-(2,3-dibromo-4,5,6-trimethoxybenzyl)cyclopentyl)-4,5,6-trimethoxybenzene]	65.5	61.1 ± 5.26	92.7	84.3 ± 9.92	23.9	27.4 ± 5.17
COc1c(Br)cc(C2CCCC2Cc2c(Br)c(Br)c(OC)c(OC)c2OC)c(OC)c1OC (stereo not drawn) [Compound 13, 1,2-Dibromo-3-((2-(5-bromo-2,3,4-trimethoxyphenyl)cyclopentyl)methyl)-4,5,6-trimethoxybenzene]	124	108 ± 5.14	217	205 ± 17.4	31.6	35.6 ± 3.95

Source: publication PMC11909056, “Investigation of cholinesterase and α-glucosidase enzyme activities, and molecular docking and dft studies for 1,2-disubstituted cyclopentane derivatives with phenyl and benzyl units” (Molecular Diversity, 2024)
